From ChEMBL document CHEMBL1649203, “Pharmacokinetics and safety of famciclovir in children with herpes simplex or varicella-zoster virus infection” (Antimicrob Agents Chemother, 2009)

Legend:
[1] = Tmax in 2 to <6 years aged pediatric patient administered as single dose; assay type: ADME, organism-based; conditions: human, in vivo
[2] = Tmax in 6 to <=12 years aged pediatric patient administered as single dose; assay type: ADME, organism-based; conditions: human, in vivo
[3] = Cmax in 1 to <2 years aged pediatric patient administered as single dose; assay type: ADME, organism-based; conditions: human, in vivo
[4] = Cmax in 2 to <6 years aged pediatric patient administered as single dose; assay type: ADME, organism-based; conditions: human, in vivo
[5] = Cmax in 6 to <=12 years aged pediatric patient administered as single dose; assay type: ADME, organism-based; conditions: human, in vivo
Homo sapiens [6] = test: AUC (0 to last) in 1 to <2 years aged pediatric patient administered as single dose; assay type: ADME, organism-based, Plasma; parameters: time 0 - last; conditions: in vivo
Homo sapiens [7] = test: AUC (0 to last) in 2 to <6 years aged pediatric patient administered as single dose; assay type: ADME, organism-based, Plasma; parameters: time 0 - last; conditions: in vivo
Homo sapiens [8] = test: AUC (0 to last) in 6 to <=12 years aged pediatric patient administered as single dose; assay type: ADME, organism-based, Plasma; parameters: time 0 - last; conditions: in vivo
Homo sapiens [9] = test: AUC (0 to infinity) in 1 to <2 years aged pediatric patient administered as single dose; assay type: ADME, organism-based, Plasma; parameters: time infinity; conditions: in vivo
Homo sapiens [10] = test: AUC (0 to infinity) in 2 to <6 years aged pediatric patient administered as single dose; assay type: ADME, organism-based, Plasma; parameters: time infinity; conditions: in vivo
Homo sapiens [11] = test: AUC (0 to infinity) in 6 to <=12 years aged pediatric patient administered as single dose; assay type: ADME, organism-based, Plasma; parameters: time infinity; conditions: in vivo
[12] = Half life in 1 to <2 years aged pediatric patient administered as single dose; assay type: ADME, organism-based; conditions: human, in vivo
[13] = Half life in 2 to <6 years aged pediatric patient administered as single dose; assay type: ADME, organism-based; conditions: human, in vivo
[14] = Half life in 6 to <=12 years aged pediatric patient administered as single dose; assay type: ADME, organism-based; conditions: human, in vivo
[15] = Apparent oral clearance in 1 to <2 years aged pediatric patient administered as single dose; assay type: ADME, organism-based; conditions: human, in vivo
[16] = Apparent oral clearance in 2 to <6 years aged pediatric patient administered as single dose; assay type: ADME, organism-based; conditions: human, in vivo
[17] = Apparent oral clearance in 6 to <=12 years aged pediatric patient administered as single dose; assay type: ADME, organism-based; conditions: human, in vivo
Homo sapiens [18] = test: Toxicity in HSV-infected 1 to <2 years aged pediatric patient assessed as at least one adverse event at 30.9 mg/kg, po bid; assay type: organism-based; parameters: dose 30.9 mg/kg, route oral; conditions: in vivo
Homo sapiens [19] = test: Toxicity in HSV-infected 2 to <6 years aged pediatric patient assessed as at least one adverse event at 27.6 mg/kg, po bid; assay type: organism-based; parameters: dose 27.6 mg/kg, route oral; conditions: in vivo
Homo sapiens [20] = test: Toxicity in HSV-infected 6 to <=12 years aged pediatric patient assessed as at least one adverse event at 23.5 mg/kg, po bid; assay type: organism-based; parameters: dose 23.5 mg/kg, route oral; conditions: in vivo
Homo sapiens [21] = test: Toxicity in orally dosed HSV-infected patient assessed as at least one adverse event administered as bid; assay type: organism-based; conditions: in vivo, po
Homo sapiens [22] = test: Toxicity in HSV-infected 1 to <2 years aged pediatric patient assessed as incidence of vomiting at 30.9 mg/kg, po bid; assay type: organism-based; parameters: dose 30.9 mg/kg, route oral; conditions: in vivo
Homo sapiens [23] = test: Toxicity in HSV-infected 2 to <6 years aged pediatric patient assessed as incidence of vomiting at 27.6 mg/kg, po bid; assay type: organism-based; parameters: dose 27.6 mg/kg, route oral; conditions: in vivo
Homo sapiens [24] = test: Toxicity in HSV-infected 6 to <=12 years aged pediatric patient assessed as incidence of vomiting at 23.5 mg/kg, po bid; assay type: organism-based; parameters: dose 23.5 mg/kg, route oral; conditions: in vivo
Homo sapiens [25] = test: Toxicity in orally dosed HSV-infected patient assessed as incidence of vomiting administered as bid; assay type: organism-based; conditions: in vivo, po
Homo sapiens [26] = test: Toxicity in HSV-infected 1 to <2 years aged pediatric patient assessed as incidence of diarrhea at 30.9 mg/kg, po bid; assay type: organism-based; parameters: dose 30.9 mg/kg, route oral; conditions: in vivo
Homo sapiens [27] = test: Toxicity in HSV-infected 2 to <6 years aged pediatric patient assessed as incidence of diarrhea at 27.6 mg/kg, po bid; assay type: organism-based; parameters: dose 27.6 mg/kg, route oral; conditions: in vivo
Homo sapiens [28] = test: Toxicity in HSV-infected 6 to <=12 years aged pediatric patient assessed as incidence of diarrhea at 23.5 mg/kg, po bid; assay type: organism-based; parameters: dose 23.5 mg/kg, route oral; conditions: in vivo
Homo sapiens [29] = test: Toxicity in orally dosed HSV-infected patient assessed as incidence of diarrhea administered as bid; assay type: organism-based; conditions: in vivo, po
Homo sapiens [30] = test: Toxicity in HSV-infected 1 to <2 years aged pediatric patient assessed as incidence of headache at 30.9 mg/kg, po bid; assay type: organism-based; parameters: dose 30.9 mg/kg, route oral; conditions: in vivo
Homo sapiens [31] = test: Toxicity in HSV-infected 2 to <6 years aged pediatric patient assessed as incidence of headache at 27.6 mg/kg, po bid; assay type: organism-based; parameters: dose 27.6 mg/kg, route oral; conditions: in vivo
Homo sapiens [32] = test: Toxicity in HSV-infected 6 to <=12 years aged pediatric patient assessed as incidence of headache at 23.5 mg/kg, po bid; assay type: organism-based; parameters: dose 23.5 mg/kg, route oral; conditions: in vivo
Homo sapiens [33] = test: Toxicity in orally dosed HSV-infected patient assessed as incidence of headache administered as bid; assay type: organism-based; conditions: in vivo, po
Homo sapiens [34] = test: Toxicity in HSV-infected 1 to <2 years aged pediatric patient assessed as incidence of nausea at 30.9 mg/kg, po bid; assay type: organism-based; parameters: dose 30.9 mg/kg, route oral; conditions: in vivo
Homo sapiens [35] = test: Toxicity in HSV-infected 2 to <6 years aged pediatric patient assessed as incidence of nausea at 27.6 mg/kg, po bid; assay type: organism-based; parameters: dose 27.6 mg/kg, route oral; conditions: in vivo
Homo sapiens [36] = test: Toxicity in HSV-infected 6 to <=12 years aged pediatric patient assessed as incidence of nausea at 23.5 mg/kg, po bid; assay type: organism-based; parameters: dose 23.5 mg/kg, route oral; conditions: in vivo
Homo sapiens [37] = test: Toxicity in orally dosed HSV-infected patient assessed as incidence of nausea administered as bid; assay type: organism-based; conditions: in vivo, po
Homo sapiens [38] = test: Toxicity in HSV-infected 1 to <2 years aged pediatric patient assessed as incidence of cough at 30.9 mg/kg, po bid; assay type: organism-based; parameters: dose 30.9 mg/kg, route oral; conditions: in vivo
Homo sapiens [39] = test: Toxicity in HSV-infected 2 to <6 years aged pediatric patient assessed as incidence of cough at 27.6 mg/kg, po bid; assay type: organism-based; parameters: dose 27.6 mg/kg, route oral; conditions: in vivo
Homo sapiens [40] = test: Toxicity in HSV-infected 6 to <=12 years aged pediatric patient assessed as incidence of cough at 23.5 mg/kg, po bid; assay type: organism-based; parameters: dose 23.5 mg/kg, route oral; conditions: in vivo
Homo sapiens [41] = test: Toxicity in orally dosed HSV-infected patient assessed as incidence of cough administered as bid; assay type: organism-based; conditions: in vivo, po
Homo sapiens [42] = test: Toxicity in HSV-infected 1 to <2 years aged pediatric patient assessed as incidence of abdominal pain at 30.9 mg/kg, po bid; assay type: organism-based, Abdomen; parameters: dose 30.9 mg/kg, route oral; conditions: in vivo
Homo sapiens [43] = test: Toxicity in HSV-infected 2 to <6 years aged pediatric patient assessed as incidence of abdominal pain at 27.6 mg/kg, po bid; assay type: organism-based, Abdomen; parameters: dose 27.6 mg/kg, route oral; conditions: in vivo

Tmax [1]: 1.07 h
Tmax [2]: 1 h
Cmax [3]: 3060 ng/mL
Cmax [4]: 2780 ng/mL
Cmax [5]: 3410 ng/mL
AUC (Homo sapiens [6]): 6.52 ug/hr.ml
AUC (Homo sapiens [7]): 6.31 ug/hr.ml
AUC (Homo sapiens [8]): 7.98 ug/hr.ml
AUC (Homo sapiens [9]): 7.16 ug/hr.ml
AUC (Homo sapiens [10]): 7.23 ug/hr.ml
AUC (Homo sapiens [11]): 9.33 ug/hr.ml
half-life [12]: 1.2 h
half-life [13]: 1.28 h
half-life [14]: 1.62 h
CL/F [15]: 278 mL/min
CL/F [16]: 410 mL/min
CL/F [17]: 578 mL/min
Structure (SMILES): Nc1nc2c(ncn2CCC(CO)CO)c(=O)[nH]1 [PENCICLOVIR]
Activity (Homo sapiens [18]): 42.2%
Activity (Homo sapiens [19]): 50%
Activity (Homo sapiens [20]): 66.7%
Activity (Homo sapiens [21]): 55.3%
Activity (Homo sapiens [22]): 15.4%
Activity (Homo sapiens [23]): 6.3%
Activity (Homo sapiens [24]): 11.1%
Activity (Homo sapiens [25]): 10.6%
Activity (Homo sapiens [26]): 7.7%
Activity (Homo sapiens [27]): 6.3%
Activity (Homo sapiens [28]): 11.1%
Activity (Homo sapiens [29]): 8.5%
Activity (Homo sapiens [30]): 0%
Activity (Homo sapiens [31]): 0%
Activity (Homo sapiens [32]): 22.2%
Activity (Homo sapiens [33]): 8.5%
Activity (Homo sapiens [34]): 7.7%
Activity (Homo sapiens [35]): 0%
Activity (Homo sapiens [36]): 11.1%
Activity (Homo sapiens [37]): 6.4%
Activity (Homo sapiens [38]): 7.7%
Activity (Homo sapiens [39]): 6.3%
Activity (Homo sapiens [40]): 5.6%
Activity (Homo sapiens [41]): 6.4%
Activity (Homo sapiens [42]): 0%
Activity (Homo sapiens [43]): 6.3%
